Assay results published in PMC8050080, “Cannabis sativa terpenes are cannabimimetic and selectively enhance cannabinoid activity” (Scientific Reports, 2021).
pIC50: −log10 of the molar value.

Assays:
[1] = test system: male and female CD-1 mice; assay: Tail flick thermal latency test (antinociception); format: in vivo; conditions: Fig. S1; for tail flick antinociception (efficacy in words): terpenes 50–200 mg/kg i.p. (β-Caryophyllene 100 mg/kg), WIN55,212-2 up to 10 mg/kg, over 2 h
Protocol: Antinociception was tested using the tail flick thermal latency test. Mice were baselined by gently restraining the animal and lowering the distal portion of the tail into a water bath set to 52 °C or 47 °C where stated, and the latency to flick the tail recorded with a stopwatch, with a 10 s cutoff. Mice were then injected with compounds intraperitoneally (i.p.). Thermal latency was then assessed over a time course of 2 h, or at a single time-point as noted. […] For assays using terpene/WIN55,212-2 co-treatment, WIN55,212-2 was co-administered with terpene in the same solution.

[2] = test system: male and female CD-1 mice; assay: Hypothermia (core temperature, rectal thermometer); format: in vivo; conditions: for hypothermia vs baseline: 30 min after i.p. 200 mg/kg terpene or 5.6 mg/kg WIN55,212-2, Fig. S2A
Protocol: Changes in core temperature were assessed using a lubricated rectal thermometer placed 1.0 cm into the mouse rectum. Temperature was assessed before treatment and 30 min post-treatment.

[3] = test system: male and female CD-1 mice; assay: Catalepsy ring test; format: in vivo; conditions: for catalepsy vs baseline: 15 min after i.p. 200 mg/kg terpene or 5.6 mg/kg WIN55,212-2, Fig. S2B
Protocol: Potential induction of catalepsy was assessed using the ring test as described. Mice were baselined, injected with compound, and then assessed with the ring test at 15 min post-injection. Data was represented as the percentage (%) of time in a “cataleptic” immobile state over the 5 min observation period.

[4] = test system: WT CHO cells; assay: ERK phosphorylation (Western) in WT CHO cells; format: cell-based; conditions: for ERK phosphorylation in WT CHO cells: 500 μM terpene or 10 μM WIN55,212-2, 5 min, Fig. 7B
Protocol: WT-CHO cells were obtained from ATCC (#CCL-61). CHO cells stably expressing the human CB1 receptor were obtained from PerkinElmer (#ES-110-C) and utilized for western blots (CB1-CHO-C2) or binding assays (CB1-CHO-C3). HitHunter (CB1-CHO-cAMP) and PathHunter (CB-CHO-βarr2) assays were performed on respective CB1-CHO lines, and were a kind gift from Dr. Robert Laprairie[44]. CHO cells stably expressing cloned CB2 (CB2-CHO) were produced by electroporation with the human CB2 N-3xHA tag cDNA (GeneCopoeia). A stable expressing population was selected for with 500 μg/mL G418. CHO cells stably expressing the human mu opioid receptor were obtained from PerkinElmer (#ES-542-C). All cells were grown on 10 cm dishes in DMEM/F-12 50/50 mix w/ L-glutamine and 15 mM HEPES (Corning) containing 10% heat-inactivated fetal bovine serum, 100 units/mL penicillin, 100 units/mL streptomycin, and 400 μg/mL G418 (CB1-CHO-C2, CB1-CHO-C3, CB2-CHO, MOR-CHO); 800 μg/mL G418 (CB1-CHO-cAMP); 800 μg/mL G418 and 300 μg/mL hygromycin B (CB1-CHO-βarr2). WT CHO were grown as stated above without selection antibiotic. Cells were incubated in a humidified incubator at 37 °C with 5% CO2 and were sub-cultured every 2–3 days.
Cells were plated in 6-well plates 24 h prior to the start of the experiments. Cells were serum starved for 1 h then treated for 5 min with compound. In antagonist experiments, cells were pretreated for 5 min before agonist treatment for 5 min. Media was then aspirated, cells were placed on ice, washed with ice-cold PBS once, and lysis buffer (20 mM Tris–HCl, pH 7.4, 150 mM NaCl, 2 mM EDTA, 0.1% SDS, 1% Nonidet P-40, 0.25% deoxycholate, 1 mM sodium orthovanadate, 1 mM PMSF, 1 mM sodium fluoride, and a protease inhibitor cocktail (EMD Millipore)), was added. Cells were scraped and collected. Lysates were vortexed then centrifuged at 13 k rpm at 4 °C for 10 min. Lysates were then processed for Western blots or stored at − 80 °C.
Cell lysate protein was quantified with a modified BCA protein assay using manufacturers protocol (Bio-Rad). Samples (20–30 μg) were ran on precast gels (10% Bis–Tris, Bolt brand, from ThermoFisher). Gels were wet-transferred to nitrocellulose membranes at 30 V for at least 60 min at 4 °C. Blots were blocked with 5% non-fat dry milk in TBS for 30 min, washed 3 × for 5 min with TBS + 0.1% Tween-20 (TBST), and incubated with primary antibody overnight at 4 °C. Primary antibody: pERK and tERK (Cell Signaling) at 1:1000 dilution in 5% BSA in TBST. Blots were then washed 3 × with TBST then incubated with secondary antibodies for 90 min at room temperature. Secondary antibodies: Goat anti-Rabbit 800 W and Goat anti-Mouse 680 diluted at 1:10,000 and 1:20,000 (Licor), respectively, in 5% non-fat milk in TBST. Blots were washed 3X with TBST and 1 × with TBS, then imaged on a Licor Odyssey Fc or Azure Sapphire. Bands were analyzed using Image-J and reported as pERK/tERK normalized to the standard, or simply as pERK/tERK.

[5] = molecular target: T1, human mu opioid receptor (Homo sapiens, UniProt P35372); format: cell-based; conditions: 500 μM terpene or 10 μM morphine, 5 min, Fig. S13A
T1 construct: host or cells: CHO (MOR-CHO)
Protocol: Cells were plated in 6-well plates 24 h prior to the start of the experiments. Cells were serum starved for 1 h then treated for 5 min with compound. In antagonist experiments, cells were pretreated for 5 min before agonist treatment for 5 min. […] Cells were scraped and collected. Lysates were vortexed then centrifuged at 13 k rpm at 4 °C for 10 min. Lysates were then processed for Western blots or stored at − 80 °C.
CHO cells were serum starved for 1 hr, then treated with Vehicle, 10 μM morphine, or 500
μM terpene for 5 min. ERK was quantitated and reported as above. Data expressed as the
vs. Vehicle group by 1 Way ANOVA with Dunnett’s post hoc test. B) MOR-CHO cells
serum starved for 1 hr, then pre-treated with Vehicle or 10 μM naloxone for 10 min, then
treated with Vehicle, 10 μM morphine, or 500 μM terpene for 5 min. ERK quantitated,
reported, and normalized as in A (n=3 independent experiments). *, **** = p < 0.05,
0.0001 vs. terpene-alone group for each set by 1 Way ANOVA with Sidak’s post hoc test
(set up as pairwise comparisons between terpene and terpene + naloxone for each set). For
both, representative blots are shown below each graph.

[6] = molecular target: T2, CB1 (Homo sapiens, UniProt P21554); assay: biochemical; format: binding; conditions: CB1-CHO membranes; for competition for the orthosteric binding site against CP55,940: Fig. 8A
[7] = test system: male and female CD-1 mice; assay: Open field test (hypolocomotion); conditions: for locomotor activity vs baseline / distance traveled and mobile time, experiment without baseline recording: 200 mg/kg terpene or 5.6 mg/kg WIN55,212-2 i.p.; for locomotor activity vs baseline: compared to baseline values, Fig. S2C,D, confounded by habituation; for distance traveled and mobile time, experiment without baseline recording: vs Vehicle, Fig. S3A,B
Protocol: All experiments were performed on male and female CD-1 (a.k.a. ICR) mice obtained from Charles River in age-matched cohorts of 5–6 weeks of age. […] The animals were maintained in an AAALAC-accredited vivarium at the University of Arizona in temperature and humidity-controlled rooms on a 12-h light/dark cycle. Standard chow and water were available ad libitum. […] Mice were randomized to treatment group by randomization of mice to cages upon arrival, and block random assignment of cages to treatment group. The experimenter was blinded to treatment group by the delivery of coded drug vials. The groups were not decoded until all data had been acquired.
The open field test was used to determine potential hypolocomotive properties induced by terpene and cannabinoid treatment. The open field box was a white box with an open top and black floor. The tracking area was 30 cm × 28 cm. Mice were baselined by placing the mouse in the center of the box and recording from a video camera ~ 1.5 m above for a period of 5 min. Mice were then injected with compound and placed back in the open field box 10–15 min post-injection. In follow-up experiments, mice were not baselined, injected with compound, and placed in the open field box from 10 to 15 min. The total distance traveled and mobile time of mice were analyzed using AnyMaze software.

[8] = molecular target: T2, CB1; format: cell-based; design: expressed in transfected cells; host or cells: CHO (CB1-CHO-βarr2 / CB1-CHO-DX), gift from Dr. Robert Laprairie; conditions: Fig. S14C
[9] = test system: male and female CD-1 mice; assay: Cannabinoid tetrad of behaviors (antinociception, hypolocomotion, catalepsy, hypothermia); format: in vivo
Description: Our first set of experiments sought to determine whether selected terpenes/terpenoids (α-Humulene, β-Pinene, Linalool [terpenoid], Geraniol [terpenoid], and β-Caryophyllene as a putative cannabinoid receptor type 2 [CB2] agonist control) had activity in the cannabinoid tetrad of behaviors mediated by the CB1 receptor: antinociception, hypolocomotion, catalepsy, and hypothermia. These terpenes were selected based on their quantities in Cannabis sativa, with α-Humulene, β-Pinene, Linalool, and β-Caryophyllene all being found in higher quantities and Geraniol in lower to underdetermined quantities. Although it is not clear if geraniol is present in higher quantities, we nonetheless chose this ligand due to its reported anti-nociceptive activity (e.g.[22]). Terpenes were administered at several doses (50–200 mg/kg) i.p. and assessed in the tail flick assay in male and female CD-1 mice. […]
Antinociception was tested using the tail flick thermal latency test. Mice were baselined by gently restraining the animal and lowering the distal portion of the tail into a water bath set to 52 °C or 47 °C where stated, and the latency to flick the tail recorded with a stopwatch, with a 10 s cutoff. […] Thermal latency was then assessed over a time course of 2 h, or at a single time-point as noted. […]
Potential induction of catalepsy was assessed using the ring test as described. […]

[10] = molecular target: T2, CB1; format: cell-based; conditions: varying concentrations, 5 min, Fig. 6
Protocol: WT-CHO cells were obtained from ATCC (#CCL-61). […] CHO cells stably expressing cloned CB2 (CB2-CHO) were produced by electroporation with the human CB2 N-3xHA tag cDNA (GeneCopoeia). A stable expressing population was selected for with 500 μg/mL G418. […] All cells were grown on 10 cm dishes in DMEM/F-12 50/50 mix w/ L-glutamine and 15 mM HEPES (Corning) containing 10% heat-inactivated fetal bovine serum, 100 units/mL penicillin, 100 units/mL streptomycin, and 400 μg/mL G418 (CB1-CHO-C2, CB1-CHO-C3, CB2-CHO, MOR-CHO); 800 μg/mL G418 (CB1-CHO-cAMP); 800 μg/mL G418 and 300 μg/mL hygromycin B (CB1-CHO-βarr2). WT CHO were grown as stated above without selection antibiotic. Cells were incubated in a humidified incubator at 37 °C with 5% CO2 and were sub-cultured every 2–3 days.
Cells were plated in 6-well plates 24 h prior to the start of the experiments. Cells were serum starved for 1 h then treated for 5 min with compound. In antagonist experiments, cells were pretreated for 5 min before agonist treatment for 5 min. […] Cells were scraped and collected. Lysates were vortexed then centrifuged at 13 k rpm at 4 °C for 10 min. […]
Cell lysate protein was quantified with a modified BCA protein assay using manufacturers protocol (Bio-Rad). […] Bands were analyzed using Image-J and reported as pERK/tERK normalized to the standard, or simply as pERK/tERK.

T2 sequence (P21554 whole entry): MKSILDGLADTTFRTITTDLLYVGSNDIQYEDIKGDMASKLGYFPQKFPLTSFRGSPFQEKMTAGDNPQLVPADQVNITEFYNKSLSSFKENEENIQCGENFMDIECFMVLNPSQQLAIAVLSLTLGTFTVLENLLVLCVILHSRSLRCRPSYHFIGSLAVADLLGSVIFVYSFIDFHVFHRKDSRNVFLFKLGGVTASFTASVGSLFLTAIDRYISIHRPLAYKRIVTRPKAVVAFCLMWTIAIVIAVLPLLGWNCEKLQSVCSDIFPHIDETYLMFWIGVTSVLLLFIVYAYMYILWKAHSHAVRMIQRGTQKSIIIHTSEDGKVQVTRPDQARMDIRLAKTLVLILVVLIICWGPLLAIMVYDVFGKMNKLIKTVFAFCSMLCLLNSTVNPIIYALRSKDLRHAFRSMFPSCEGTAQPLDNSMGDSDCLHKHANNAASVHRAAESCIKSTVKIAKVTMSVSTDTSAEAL
T1 sequence (P35372 whole entry): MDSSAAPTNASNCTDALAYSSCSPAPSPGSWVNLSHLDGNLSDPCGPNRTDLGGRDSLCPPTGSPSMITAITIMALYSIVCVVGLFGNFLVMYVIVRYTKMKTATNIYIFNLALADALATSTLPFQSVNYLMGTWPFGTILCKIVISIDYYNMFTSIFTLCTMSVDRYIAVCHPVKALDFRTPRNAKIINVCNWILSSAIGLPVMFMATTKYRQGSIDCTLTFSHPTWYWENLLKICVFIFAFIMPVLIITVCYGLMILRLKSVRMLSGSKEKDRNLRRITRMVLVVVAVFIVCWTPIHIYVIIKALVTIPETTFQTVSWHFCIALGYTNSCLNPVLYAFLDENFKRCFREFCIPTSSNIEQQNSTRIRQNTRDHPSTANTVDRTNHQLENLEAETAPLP

SMILES	efficacy in the tail flick assay ([1]; terpene 50–200 mg/kg i.p., dose-dependent)	hypothermia vs baseline [2]	effect of istradefyllene pretreatment on catalepsy response ([3]; 10 mg/kg istradefyllene, 200 mg/kg terpene, Fig. 4)	effect of rimonabant pretreatment on catalepsy response ([3]; 10 mg/kg rimonabant, 200 mg/kg terpene, Fig. 4)	catalepsy vs baseline [3]	ERK phosphorylation in WT CHO cells [4]	ERK stimulation in MOR-CHO cells [5]	competition for the orthosteric binding site against CP55,940 [6]	pIC50 ([6]; mean (95% CI), n = 5, Fig. 8A, read-out: IC50, competition binding against 3H-CP55,940)	effect of istradefyllene pretreatment on mobile time ([7]; 10 mg/kg istradefyllene, 200 mg/kg terpene, Fig. 5)	effect of istradefyllene pretreatment on distance traveled ([7]; 10 mg/kg istradefyllene, 200 mg/kg terpene, Fig. S7)	locomotor activity vs baseline [7]	distance traveled and mobile time, experiment without baseline recording [7]	effect of a full dose-range of Geraniol on WIN55,212-2 βarrestin2 recruitment [8]	tail flick antinociception (efficacy in words) [1]	effect of rimonabant pretreatment on hypothermia ([2]; 10 mg/kg rimonabant, 200 mg/kg terpene or 5.6 mg/kg WIN55,212-2, Fig. 3, S4C)	effect of rimonabant on tetrad behaviors induced by the agonist ([9]; 5.6 mg/kg WIN55,212-2 after 10 mg/kg rimonabant i.p., Fig. S4)	ERK activation in CB1-CHO cells [10]	rimonabant sensitivity of ERK activation in WT CHO cells ([4]; 500 μM terpene after 10 μM rimonabant, Fig. 7C)	number of classic cannabinoid tetrad behaviors induced (out of 4) ([9]; 200 mg/kg terpene i.p. (β-Caryophyllene control))
CC(C)=CCC/C(C)=C/CO [Geraniol]	40–50%	induced significant hypothermia	partially blocked	no impact	significant increases in cataleptic behavior	did not cause ERK phosphorylation	no response	full competition	4.35	significant reversal	istradefyllene reversal	significant reductions in locomotor activity	reductions in distance traveled and mobile time	dose-dependent reductions in WIN55,212-2 recruitment	–	–	–	–	–	–
Cc1c(C(=O)c2cccc3ccccc23)c2cccc3c2n1[C@H](CN1CCOCC1)CO3 [WIN55,212-2, reference compound]	–	induced significant hypothermia	–	–	significant increases in cataleptic behavior	did not cause ERK phosphorylation	–	–	–	–	–	significant reductions in locomotor activity	reductions in distance traveled and mobile time	–	dose-dependent increases in thermal latency with greater efficacy than any of the tested compounds	only partially reversed	fully or partially reverse	–	–	–
C=C1CC/C=C(\C)CC[C@@H]2[C@@H]1CC2(C)C [β-Caryophyllene, reference compound]	–	did not induce	–	–	did not induce	activated ERK	produced ERK stimulation	some competition and semi-biphasic properties	–	–	–	–	did not result in significant reductions	–	low efficacy	–	–	activated downstream ERK signaling	rimonabant-insensitive	did not
